Experimental data reported in PubChem BioAssay AID256 (DTP/NCI, 2004).
Values joined by “and” are separate entries in the source; they are usually repeats but may differ in a detail not shown here. Identical values can stand only once. Inconclusive results and toxic doses are left out. Non-standard residues stand in square brackets, D forms with d. Residues, ends and D or L forms follow the SMILES beside them. ξ: configuration not given here. *: point of attachment. ξF = NC(Cc1ccccc1)C(=O)O; ClAc = O=C(CCl)*

Test system: CD2F1 mice, L1210 leukemia ip, survival T/C
Experiment: NCI In Vivo Anticancer Drug Screen. Data for tumor model L1210 Leukemia (intraperitoneal) in CD2F1 (CDF1) mice
Details: higher = longer survival
How it was run: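 Each value reflects a quotient of treated over vehicle control outcomes in mice with a transplanted tumor.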

[1] = endpoint: mean survival time, dose: 25.0 mg/kg/injection, schedule: Q04DX002 (ip), vehicle: saline with Tween-80
[2] = endpoint: mean survival time, dose: 50.0 mg/kg/injection, schedule: Q04DX002 (ip), vehicle: saline with Tween-80
[3] = endpoint: mean survival time, dose: 100.0 mg/kg/injection, schedule: Q04DX003 (ip), vehicle: saline with Tween-80
[4] = endpoint: mean survival time, dose: 200.0 mg/kg/injection, schedule: Q04DX003 (ip), vehicle: saline with Tween-80
[5] = endpoint: mean survival time, dose: 400.0 mg/kg/injection, schedule: Q04DX003 (ip), vehicle: saline with Tween-80
[6] = endpoint: mean survival time, dose: 100.0 mg/kg/injection, schedule: Q01DX009 (ip), vehicle: saline with Tween-80
[7] = endpoint: mean survival time, dose: 200.0 mg/kg/injection, schedule: Q01DX009 (ip), vehicle: saline with Tween-80
[8] = endpoint: mean survival time, dose: 100.0 mg/kg/injection, schedule: Q04DX002 (ip), vehicle: saline with Tween-80
[9] = endpoint: mean survival time, dose: 100.0 mg/kg/injection, schedule: Q01DX001 (ip), vehicle: saline
[10] = endpoint: mean survival time, dose: 200.0 mg/kg/injection, schedule: Q01DX001 (ip), vehicle: saline
[11] = endpoint: mean survival time, dose: 400.0 mg/kg/injection, schedule: Q01DX001 (ip), vehicle: saline
[12] = endpoint: mean survival time, dose: 400.0 mg/kg/injection, schedule: Q01DX009 (ip), vehicle: saline with Tween-80

O=C1C2C3CC4C2C(Br)C2C1C3C42 (configuration not stated) was tested, and the T/C [1] was 104 % of control and the T/C [2] was 100 % of control.
In the case of CS(=O)(=O)OCCBr, the T/C (endpoint: mean survival time, dose: 50.0 mg/kg/injection, schedule: Q04DX003 (ip), vehicle: saline) is reported as 102 % of control.
With OC1COCOC1C1OCOCC1O (configuration not stated) the T/C (endpoint: mean survival time, dose: 100.0 mg/kg/injection, schedule: Q04DX003 (ip), vehicle: saline) was 95 % of control, the T/C (endpoint: mean survival time, dose: 200.0 mg/kg/injection, schedule: Q04DX003 (ip), vehicle: saline) was 95 % of control and the T/C (endpoint: mean survival time, dose: 400.0 mg/kg/injection, schedule: Q04DX003 (ip), vehicle: saline) was 97 % of control.
In the case of O=C(CCl)NCC(=O)NC(Cc1ccccc1)C(=O)O (configuration not stated) (ClAc-Gly-[ξF]-OH), the T/C [3] is reported as 98 % of control, the T/C [4] is reported as 96 % of control and the T/C [5] is reported as 96 % of control.
With CCN(CC)c1cc(C(=O)O)cc(N(CC)CC)n1 the T/C (endpoint: median survival time, dose: 6.25 mg/kg/injection, schedule: Q01DX009 (ip), vehicle: other) was 104 % of control, the T/C (endpoint: median survival time, dose: 12.5 mg/kg/injection, schedule: Q01DX009 (ip), vehicle: other) was 107 % of control and the T/C (endpoint: median survival time, dose: 50.0 mg/kg/injection, schedule: Q01DX005 (ip), vehicle: acid diluted with saline) was 103 % of control. The T/C (endpoint: median survival time, dose: 50.0 mg/kg/injection, schedule: Q01DX009 (ip), vehicle: other) was 108 % of control, the T/C (endpoint: median survival time, dose: 100.0 mg/kg/injection, schedule: Q01DX005 (ip), vehicle: acid diluted with saline) was 94 % of control and the T/C (endpoint: median survival time, dose: 100.0 mg/kg/injection, schedule: Q01DX009 (ip), vehicle: other) was 121 % of control.
With O=P(Oc1ccccc1)(Oc1ccccc1)N(CCCl)CCCl the T/C (endpoint: mean survival time, dose: 12.5 mg/kg/injection, schedule: Q01DX009 (ip), vehicle: water) was 101 % of control, the T/C (endpoint: mean survival time, dose: 25.0 mg/kg/injection, schedule: Q01DX009 (ip), vehicle: water) was 100 % of control and 108 % of control and the T/C (endpoint: mean survival time, dose: 31.25 mg/kg/injection, schedule: Q01DX001 (ip), vehicle: distilled water + Tween-80) was 104 % of control. For the same molecule, the T/C (endpoint: mean survival time, dose: 50.0 mg/kg/injection, schedule: Q01DX009 (ip), vehicle: water) was 104 % of control, the T/C (endpoint: mean survival time, dose: 62.5 mg/kg/injection, schedule: Q01DX001 (ip), vehicle: distilled water + Tween-80) was 107 % of control and the T/C (endpoint: mean survival time, dose: 100.0 mg/kg/injection, schedule: Q01DX009 (ip), vehicle: water) was 161 % of control. For the same molecule, the T/C (endpoint: mean survival time, dose: 125.0 mg/kg/injection, schedule: Q01DX001 (ip), vehicle: distilled water + Tween-80) was 102 % of control and the T/C (endpoint: mean survival time, dose: 250.0 mg/kg/injection, schedule: Q01DX001 (ip), vehicle: distilled water + Tween-80) was 119 % of control.
O=C(O)C1C2CCCCC2=C2CCCCC2C1C(=O)O (configuration not stated) was tested, and the T/C [6] was 98 % of control and the T/C [7] was 104 % of control.
With CC(CC(=O)Nc1ccccc1)C(=O)O (configuration not stated) the T/C [3] was 103 % of control, the T/C [4] was 101 % of control and the T/C [5] was 106 % of control.
In the case of NC(=O)OCCc1c2ccccc2nc2ccccc12, the T/C (endpoint: mean survival time, dose: 25.0 mg/kg/injection, schedule: Q04DX002 (ip), vehicle: other) is reported as 96 % of control, the T/C (endpoint: mean survival time, dose: 50.0 mg/kg/injection, schedule: Q04DX002 (ip), vehicle: other) is reported as 93 % of control and the T/C (endpoint: mean survival time, dose: 100.0 mg/kg/injection, schedule: Q04DX002 (ip), vehicle: other) is reported as 93 % of control. The T/C [8] was 105 % of control and the T/C (endpoint: mean survival time, dose: 400.0 mg/kg/injection, schedule: Q04DX002 (ip), vehicle: saline with Tween-80) was 105 % of control.
For CC[C+](C)[B-][N+](C)(C)C, the T/C [9] was 93 % of control, the T/C [10] was 98 % of control and the T/C [11] was 100 % of control.
For O=C(O)c1cc2ccccc2cn1, the T/C (endpoint: mean survival time, dose: 50.0 mg/kg/injection, schedule: Q01DX009 (ip), vehicle: saline) was 108 % of control and the T/C (endpoint: mean survival time, dose: 100.0 mg/kg/injection, schedule: Q01DX009 (ip), vehicle: saline) was 95 % of control.
Nc1ncnc2c1c1c(SCc3ccc([N+](=O)[O-])cc3)ncnc1n2C1OC(CO)C(O)C1O (configuration not stated) was tested, and the T/C (endpoint: mean survival time, dose: 6.25 mg/kg/injection, schedule: Q01DX005 (ip), vehicle: other) was 104 % of control, the T/C (endpoint: mean survival time, dose: 12.5 mg/kg/injection, schedule: Q01DX005 (ip), vehicle: other) was 104 % of control and the T/C (endpoint: mean survival time, dose: 25.0 mg/kg/injection, schedule: Q01DX005 (ip), vehicle: other) was 104 % of control. For the same molecule, the T/C (endpoint: mean survival time, dose: 50.0 mg/kg/injection, schedule: Q01DX005 (ip), vehicle: other) was 113 % of control, the T/C (endpoint: mean survival time, dose: 100.0 mg/kg/injection, schedule: Q01DX005 (ip), vehicle: other) was 103 % of control and the T/C (endpoint: mean survival time, dose: 200.0 mg/kg/injection, schedule: Q01DX005 (ip), vehicle: other) was 98 % of control.
O=C(/C=C/c1ccccc1)Oc1cc(O)cc(O)c1 was tested, and the T/C (endpoint: mean survival time, dose: 12.5 mg/kg/injection, schedule: Q04DX002 (ip), vehicle: saline with Tween-80) was 102 % of control, the T/C [1] was 105 % of control and the T/C [2] was 105 % of control.
For NC(=S)N/N=C\c1nccc2c(C(F)(F)F)cccc12, the T/C [8] was 124 % of control and the T/C (endpoint: mean survival time, dose: 200.0 mg/kg/injection, schedule: Q04DX002 (ip), vehicle: saline with Tween-80) was 89 % of control.
In the case of Clc1cccc(Cl)c1C(Cl)Cl, the T/C [6] is reported as 98 % of control, the T/C [7] is reported as 98 % of control and the T/C [12] is reported as 98 % of control.
In the case of O=S1(=O)C=Cc2ccccc2O1, the T/C (endpoint: mean survival time, dose: 75.0 mg/kg/injection, schedule: Q01DX009 (ip), vehicle: saline) is reported as 102 % of control, the T/C (endpoint: mean survival time, dose: 75.0 mg/kg/injection, schedule: Q04DX003 (ip), vehicle: saline) is reported as 97 % of control and the T/C (endpoint: mean survival time, dose: 150.0 mg/kg/injection, schedule: Q01DX009 (ip), vehicle: saline) is reported as 102 % of control. For the same molecule, the T/C (endpoint: mean survival time, dose: 150.0 mg/kg/injection, schedule: Q04DX003 (ip), vehicle: saline) was 95 % of control, the T/C (endpoint: mean survival time, dose: 300.0 mg/kg/injection, schedule: Q01DX009 (ip), vehicle: saline) was 100 % of control and the T/C (endpoint: mean survival time, dose: 300.0 mg/kg/injection, schedule: Q04DX003 (ip), vehicle: saline) was 97 % of control.
For CCCCCCCC(=O)O[C@H]1[C@H]2[C@@H](CC1(C)C)C(=O)[C@]13O[C@H]1C(=O)[C@]1(CO1)[C@]23C, the T/C (endpoint: median survival time, dose: 1.25 mg/kg/injection, schedule: Q01DX009 (ip), vehicle: saline with Tween-80) was 101 % of control, the T/C (endpoint: median survival time, dose: 2.5 mg/kg/injection, schedule: Q01DX009 (ip), vehicle: saline with Tween-80) was 104 % of control and the T/C (endpoint: median survival time, dose: 5.0 mg/kg/injection, schedule: Q01DX009 (ip), vehicle: saline with Tween-80) was 104 % of control. For the same molecule, the T/C (endpoint: median survival time, dose: 10.0 mg/kg/injection, schedule: Q01DX009 (ip), vehicle: saline with Tween-80) was 107 % of control and the T/C (endpoint: median survival time, dose: 20.0 mg/kg/injection, schedule: Q01DX009 (ip), vehicle: saline with Tween-80) was 107 % of control.
For O=C1OC(=O)C2CCCC1C2, the T/C [9] was 105 % of control, the T/C [10] was 105 % of control and the T/C [11] was 100 % of control.
In the case of CN(C)CCCC1c2ccccc2Oc2ccc(C(F)(F)F)cc21 (configuration not stated), the T/C (endpoint: mean survival time, dose: 1.56 mg/kg/injection, schedule: Q01DX009 (ip), vehicle: saline) is reported as 96 % of control, the T/C (endpoint: mean survival time, dose: 3.12 mg/kg/injection, schedule: Q01DX009 (ip), vehicle: saline) is reported as 100 % of control and the T/C (endpoint: mean survival time, dose: 6.25 mg/kg/injection, schedule: Q01DX009 (ip), vehicle: saline) is reported as 94 % of control. For the same molecule, the T/C (endpoint: mean survival time, dose: 12.5 mg/kg/injection, schedule: Q01DX009 (ip), vehicle: saline) was 100 % of control and the T/C (endpoint: mean survival time, dose: 25.0 mg/kg/injection, schedule: Q01DX009 (ip), vehicle: saline) was 103 % of control.
For Cc1cc(=NO)cc(C)n1O, the T/C (endpoint: median survival time, dose: 25.0 mg/kg/injection, schedule: Q01DX009 (ip), vehicle: distilled water + alcohol) was 108 % of control, the T/C (endpoint: median survival time, dose: 50.0 mg/kg/injection, schedule: Q01DX009 (ip), vehicle: distilled water + alcohol) was 104 % of control and the T/C (endpoint: median survival time, dose: 100.0 mg/kg/injection, schedule: Q01DX009 (ip), vehicle: distilled water + alcohol) was 112 % of control. For the same molecule, the T/C (endpoint: median survival time, dose: 200.0 mg/kg/injection, schedule: Q01DX009 (ip), vehicle: distilled water + alcohol) was 108 % of control and the T/C (endpoint: median survival time, dose: 400.0 mg/kg/injection, schedule: Q01DX009 (ip), vehicle: distilled water + alcohol) was 97 % of control.
With CCCCCCCCCSCC the T/C [6] was 100 % of control, the T/C [7] was 100 % of control and the T/C [12] was 88 % of control.
In the case of CCOCCO, the T/C (endpoint: mean survival time, dose: 5.0 mg/kg/injection, schedule: Q01DX001 (ip), vehicle: saline sonified) is reported as 103 % of control, the T/C (endpoint: mean survival time, dose: 10.0 mg/kg/injection, schedule: Q01DX001 (ip), vehicle: saline sonified) is reported as 101 % of control and the T/C (endpoint: mean survival time, dose: 20.0 mg/kg/injection, schedule: Q01DX001 (ip), vehicle: saline sonified) is reported as 101 % of control.
CN(Cc1ccc[n+](Cc2ccc(S(=O)(=O)F)cc2)c1)C(=O)COc1ccc(Cl)c(Cl)c1 was tested, and the T/C [3] was 98 % of control and the T/C [4] was 96 % of control.
For CCN(CC)c1ccc(N(C(C)=O)C(C)=O)cc1, the T/C (endpoint: mean survival time, dose: 6.25 mg/kg/injection, schedule: Q04DX003 (ip), vehicle: saline with Tween-80) was 91 % of control, the T/C (endpoint: mean survival time, dose: 12.5 mg/kg/injection, schedule: Q04DX003 (ip), vehicle: saline with Tween-80) was 95 % of control and the T/C (endpoint: mean survival time, dose: 25.0 mg/kg/injection, schedule: Q04DX003 (ip), vehicle: saline with Tween-80) was 93 % of control.
